Laboratory results reported in ChEMBL document CHEMBL1158948, “[Isolation and synthesis of espintanol, a new antiparasitic monoterpene]” (J Nat Prod, 1991).
≈ marks a conversion by molar mass, not a printed value.

What was measured:
[1] = system: Leishmania amazonensis; test: Antileishmanial activity against Leishmania mexicana amazonensis after 48 hrs; format: functional
[2] = system: Trypanosoma cruzi; test: Antitrypanosomal activity against Trypanosoma cruzi C8CL1 after 48 hrs; format: functional
[3] = system: Trypanosoma cruzi; test: Antitrypanosomal activity against Trypanosoma cruzi Tulahuen after 48 hrs; format: functional
[4] = system: Trypanosoma cruzi; test: Antitrypanosomal activity against Trypanosoma cruzi 27R27CL1 after 48 hrs; format: functional
[5] = system: Leishmania braziliensis; test: Antileishmanial activity against Leishmania (Viannia) braziliensis after 48 hrs; format: functional
[6] = system: Leishmania chagasi; test: Antileishmanial activity against Leishmania donovani chagasi after 48 hrs; format: functional
[7] = system: Trypanosoma cruzi; test: Antitrypanosomal activity against Trypanosoma cruzi Z2 after 48 hrs; format: functional
[8] = system: Trypanosoma cruzi; test: Antitrypanosomal activity against Trypanosoma cruzi 13379 CL6 after 48 hrs; format: functional
[9] = system: Trypanosoma cruzi; test: Antitrypanosomal activity against Trypanosoma cruzi 13379 CL8 after 48 hrs; format: functional
[10] = system: Trypanosoma cruzi; test: Antitrypanosomal activity against Trypanosoma cruzi A99CL7 after 48 hrs; format: functional
[11] = system: Trypanosoma cruzi; test: Antitrypanosomal activity against Trypanosoma cruzi Z1 after 48 hrs; format: functional
[12] = system: Trypanosoma cruzi; test: Antitrypanosomal activity against Trypanosoma cruzi A98CL5 after 48 hrs; format: functional
[13] = system: Trypanosoma cruzi; test: Antitrypanosomal activity against Trypanosoma cruzi C8 CL1 after 48 hrs; format: functional
[14] = system: Trypanosoma cruzi; test: Antitrypanosomal activity against Trypanosoma cruzi CL after 48 hrs; format: functional
[15] = system: Trypanosoma cruzi; test: Antitrypanosomal activity against Trypanosoma cruzi TeCL2 after 48 hrs; format: functional
[16] = system: Trypanosoma cruzi; test: Antitrypanosomal activity against Trypanosoma cruzi 31R16CL1 after 48 hrs; format: functional
[17] = system: Trypanosoma cruzi; test: Antitrypanosomal activity against Trypanosoma cruzi Z2CL4 after 48 hrs; format: functional
[18] = system: Trypanosoma cruzi; test: Antitrypanosomal activity against Trypanosoma cruzi MIL4CL10 after 48 hrs; format: functional
[19] = system: Trypanosoma cruzi; test: Antitrypanosomal activity against Trypanosoma cruzi 13379 CL5 after 48 hrs; format: functional
[20] = system: Trypanosoma cruzi; test: Antitrypanosomal activity against Trypanosoma cruzi M6241CL6 after 48 hrs; format: functional
[21] = system: Trypanosoma cruzi; test: Antitrypanosomal activity against Trypanosoma cruzi Y after 48 hrs; format: functional
[22] = system: Trypanosoma cruzi; test: Antitrypanosomal activity against Trypanosoma cruzi 13379 CL3 after 48 hrs; format: functional
[23] = system: Trypanosoma cruzi; test: Antitrypanosomal activity against Trypanosoma cruzi 9280CL1 after 48 hrs; format: functional
[24] = system: Trypanosoma cruzi; test: Antitrypanosomal activity against Trypanosoma cruzi R107 after 48 hrs; format: functional
[25] = system: Leishmania guyanensis; test: Antileishmanial activity against Leishmania (Viannia) guyanensis M4147 after 48 hrs; format: functional
[26] = system: Mus musculus; test: Toxicity in BALB/c mouse at 800 mg/kg, ip after 72 hrs; format: organism-based; parameters: dose 800 mg/kg, route intraperitoneal; settings: in vivo
[27] = system: Leishmania infantum; test: Antileishmanial activity against Leishmania donovani infantum LEM 209 after 48 hrs; format: functional, LEM209
[28] = system: Leishmania aristidesi; test: Antileishmanial activity against Leishmania mexicana […] 6331 after 48 hrs; format: functional
[29] = system: Leishmania garnhami; test: Antileishmanial activity against Leishmania mexicana garnhami JAP78 after 48 hrs; format: functional
[30] = system: Leishmania mexicana venezuelensis; test: Antileishmanial activity against Leishmania mexicana venezuelensis PM H3 after 48 hrs; format: functional
[31] = system: Leishmania braziliensis; test: Antileishmanial activity against Leishmania (Viannia) braziliensis 2904 after 48 hrs; format: functional
[32] = system: Leishmania amazonensis; test: Antileishmanial activity against Leishmania mexicana amazonensis PH8 after 48 hrs; format: functional
[33] = system: Leishmania pifanoi; test: Antileishmanial activity against Leishmania pifanoi LL1 after 48 hrs; format: functional
[34] = system: Leishmania mexicana mexicana; test: Antileishmanial activity against Leishmania mexicana mexicana BEL21 after 48 hrs; format: functional
[35] = system: Leishmania chagasi; test: Antileishmanial activity against Leishmania donovani chagasi LEM 379 after 48 hrs; format: functional
[36] = system: Leishmania donovani donovani; test: Antileishmanial activity against Leishmania donovani donovani HS 70 after 48 hrs; format: functional
[37] = system: Leishmania peruviana; test: Antileishmanial activity against Leishmania (Viannia) peruviana PERU after 48 hrs; format: functional

Compound | IC90 [1] | IC90 [2] | IC90 [3] | IC90 [4] | IC90 [5] | IC90 [6] | IC90 [7] | IC90 [8] | IC90 [9] | IC90 [10] | IC90 [11] | IC90 [12] | IC90 [13] | IC90 [14] | IC90 [15] | IC90 [16] | IC90 [17] | IC90 [18] | IC90 [19] | IC90 [20] | other results
COc1cc(C(C)C)ccc1C | 25 µg/mL (≈ 152 µM) | > 100 µg/mL | > 100 µg/mL | > 100 µg/mL | 25 µg/mL (≈ 152 µM) | 25 µg/mL (≈ 152 µM) |  |  |  |  |  |  |  |  |  |  |  |  |  |  | 
COc1cc(C)c(OC)c(OC)c1C(C)C | > 100 µg/mL | > 100 µg/mL | > 100 µg/mL | > 100 µg/mL | > 100 µg/mL | > 100 µg/mL |  |  |  |  |  |  |  |  |  |  |  |  |  |  | 
O=C(Cn1ccnc1[N+](=O)[O-])NCc1ccccc1 [BENZNIDAZOLE] |  |  | 50 µg/mL (≈ 192 µM) | 100 µg/mL (≈ 384 µM) |  |  | 100 µg/mL (≈ 384 µM) | > 100 µg/mL | > 100 µg/mL | 100 µg/mL (≈ 384 µM) | 100 µg/mL (≈ 384 µM) | 100 µg/mL (≈ 384 µM) | 100 µg/mL (≈ 384 µM) | 100 µg/mL (≈ 384 µM) | 25 µg/mL (≈ 96.1 µM) | 100 µg/mL (≈ 384 µM) | 100 µg/mL (≈ 384 µM) | 25 µg/mL (≈ 96.1 µM) | 100 µg/mL (≈ 384 µM) | > 100 µg/mL | IC90 [21]: 25 µg/mL (≈ 96.1 µM); IC90 [22]: > 100 µg/mL; IC90 [23]: 50 µg/mL (≈ 192 µM); IC90 [24]: 50 µg/mL (≈ 192 µM)
N=C(N)c1ccc(OCCCCCOc2ccc(C(=N)N)cc2)cc1 [PENTAMIDINE] |  |  |  |  |  |  |  |  |  |  |  |  |  |  |  |  |  |  |  |  | IC90 [25]: 5 µg/mL (≈ 14.7 µM); IC90 [27]: 1 µg/mL (≈ 2.94 µM); IC90 [28]: 1 µg/mL (≈ 2.94 µM); IC90 [29]: 1 µg/mL (≈ 2.94 µM); IC90 [30]: 5 µg/mL (≈ 14.7 µM); IC90 [31]: 1 µg/mL (≈ 2.94 µM); IC90 [32]: 1 µg/mL (≈ 2.94 µM); IC90 [33]: 1 µg/mL (≈ 2.94 µM); IC90 [34]: 1 µg/mL (≈ 2.94 µM); IC90 [35]: 1 µg/mL (≈ 2.94 µM); IC90 [36]: 1 µg/mL (≈ 2.94 µM); IC90 [37]: 5 µg/mL (≈ 14.7 µM)
MEGLUMINE ANTIMONATE |  |  |  |  |  |  |  |  |  |  |  |  |  |  |  |  |  |  |  |  | IC90 [28]: > 100 µg/mL; IC90 [30]: > 100 µg/mL; IC90 [34]: > 100 µg/mL; IC90 [35]: > 100 µg/mL; IC90 [36]: > 100 µg/mL

The next lines start with results.

IC90 [1] | IC90 [2] | IC90 [3] | IC90 [4] | IC90 [5] | IC90 [6] | IC90 [7] | IC90 [8] | IC90 [9] | IC90 [10] | IC90 [11] | IC90 [12] | IC90 [13] | IC90 [14] | IC90 [15] | IC90 [16] | IC90 [17] | IC90 [18] | IC90 [19] | IC90 [20] | Compound | other results
25 µg/mL (≈ 119 µM) | 25 µg/mL (≈ 119 µM) | 25 µg/mL (≈ 119 µM) | 25 µg/mL (≈ 119 µM) | 10 µg/mL (≈ 47.6 µM) | 10 µg/mL (≈ 47.6 µM) | 50 µg/mL (≈ 238 µM) | 100 µg/mL (≈ 476 µM) | 50 µg/mL (≈ 238 µM) | 25 µg/mL (≈ 119 µM) | 50 µg/mL (≈ 238 µM) | > 100 µg/mL | 25 µg/mL (≈ 119 µM) | > 100 µg/mL | 25 µg/mL (≈ 119 µM) | 50 µg/mL (≈ 238 µM) | 100 µg/mL (≈ 476 µM) | 25 µg/mL (≈ 119 µM) | 50 µg/mL (≈ 238 µM) | > 100 µg/mL | COc1cc(C)c(O)c(OC)c1C(C)C [ESPINTANOL] | IC90 [25]: 25 µg/mL (≈ 119 µM); Activity [26]: Active; IC90 [27]: 25 µg/mL (≈ 119 µM); IC90 [28]: 25 µg/mL (≈ 119 µM); IC90 [29]: 25 µg/mL (≈ 119 µM); IC90 [30]: 50 µg/mL (≈ 238 µM); IC90 [31]: 10 µg/mL (≈ 47.6 µM); IC90 [32]: 25 µg/mL (≈ 119 µM); IC90 [33]: 25 µg/mL (≈ 119 µM); IC90 [21]: 50 µg/mL (≈ 238 µM); IC90 [34]: 25 µg/mL (≈ 119 µM); IC90 [22]: 50 µg/mL (≈ 238 µM); IC90 [35]: 25 µg/mL (≈ 119 µM); IC90 [36]: 50 µg/mL (≈ 238 µM); IC90 [37]: 25 µg/mL (≈ 119 µM); IC90 [23]: 50 µg/mL (≈ 238 µM); IC90 [24]: 25 µg/mL (≈ 119 µM)
 |  | 25 µg/mL (≈ 87 µM) | 100 µg/mL (≈ 348 µM) |  |  | 25 µg/mL (≈ 87 µM) | > 100 µg/mL | 50 µg/mL (≈ 174 µM) | 25 µg/mL (≈ 87 µM) | 50 µg/mL (≈ 174 µM) | 100 µg/mL (≈ 348 µM) | 25 µg/mL (≈ 87 µM) | 100 µg/mL (≈ 348 µM) | 25 µg/mL (≈ 87 µM) | 100 µg/mL (≈ 348 µM) | 50 µg/mL (≈ 174 µM) | 50 µg/mL (≈ 174 µM) | 100 µg/mL (≈ 348 µM) | 50 µg/mL (≈ 174 µM) | CC1CS(=O)(=O)CCN1/N=C/c1ccc([N+](=O)[O-])o1 (configuration not stated) [NIFURTIMOX] | IC90 [21]: 25 µg/mL (≈ 87 µM); IC90 [22]: > 100 µg/mL; IC90 [23]: 50 µg/mL (≈ 174 µM); IC90 [24]: 25 µg/mL (≈ 87 µM)
> 100 µg/mL | > 100 µg/mL | > 100 µg/mL | > 100 µg/mL | > 100 µg/mL | > 100 µg/mL |  |  |  |  |  |  |  |  |  |  |  |  |  |  | COc1cc(C(C)C)c(OC)cc1C [THYMOQUINOL DIMETHYLETHER] | 
